One molecule from article PMC4925669, “Phytochemicals Mediate the Expression and Activity of OCTN2 as Activators of the PPARγ/RXRα Pathway” (Frontiers in Pharmacology, 2016) can be followed below.

For this experiment, the target named is T1, PPARγ (Homo sapiens, UniProt P37231).
T1 construct: gene PPARG; pcDNA3.1-PPARγ; with RXRα
T1 sequence (P37231 1-505): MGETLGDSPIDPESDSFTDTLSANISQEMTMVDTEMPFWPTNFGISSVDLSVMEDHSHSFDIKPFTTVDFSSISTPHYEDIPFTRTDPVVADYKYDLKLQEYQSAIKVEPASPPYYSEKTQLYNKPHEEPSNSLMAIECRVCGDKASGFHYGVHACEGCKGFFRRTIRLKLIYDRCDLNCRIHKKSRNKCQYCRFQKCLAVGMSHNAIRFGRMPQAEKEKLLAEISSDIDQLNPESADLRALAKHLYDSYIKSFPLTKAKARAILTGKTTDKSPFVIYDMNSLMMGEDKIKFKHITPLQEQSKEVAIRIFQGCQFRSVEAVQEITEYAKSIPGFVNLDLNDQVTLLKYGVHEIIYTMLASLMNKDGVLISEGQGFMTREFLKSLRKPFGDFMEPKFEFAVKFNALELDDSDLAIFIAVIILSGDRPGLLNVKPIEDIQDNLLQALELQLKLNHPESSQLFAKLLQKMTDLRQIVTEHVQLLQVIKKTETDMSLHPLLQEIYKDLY
T1 sequence (P19793 1-462 partner): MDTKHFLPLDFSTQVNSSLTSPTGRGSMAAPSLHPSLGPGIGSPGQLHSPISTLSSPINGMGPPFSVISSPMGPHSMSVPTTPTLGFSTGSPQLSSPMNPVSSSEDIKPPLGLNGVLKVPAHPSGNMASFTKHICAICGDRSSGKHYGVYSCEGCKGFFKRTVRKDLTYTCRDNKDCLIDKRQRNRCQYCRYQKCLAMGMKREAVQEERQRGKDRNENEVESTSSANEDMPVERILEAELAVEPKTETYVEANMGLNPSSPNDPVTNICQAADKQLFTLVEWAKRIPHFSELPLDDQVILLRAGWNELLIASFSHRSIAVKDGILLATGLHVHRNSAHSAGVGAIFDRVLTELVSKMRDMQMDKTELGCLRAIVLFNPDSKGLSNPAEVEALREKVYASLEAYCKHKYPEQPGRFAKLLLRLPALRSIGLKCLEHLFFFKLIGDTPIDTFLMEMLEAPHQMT
Description: PPRE/OCTN2 dual-luciferase transactivation assay in COS-7 cells transfected with PPARγ/RXRα, blocked by GW9662. The class given is cell-based.

As to `O=c1c(O)c(-c2ccc(O)cc2)oc2cc(O)cc(O)c12` [Kaempferol], the “Relative RFU fold change (% of blank)” value is listed as 189.89 ± 5.98 % of blank.
